Laboratory results: PubChem BioAssay AID651798 (Broad Institute, 2012)
Active and inactive are the calls of the source.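 How the source made its calls: active means fitted AC50 at or below twice the top valid dose, with signal falling as dose rises; inconclusive means flat fit between -30 and -70%, or poor fit; inactive means the rest, including rising effects.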

Each molecule was assayed against Kelch-like ECH-associated protein 1 (Homo sapiens) (UniProt Q14145) (assay: disruptors of Keap1 Kelch-Nrf2 peptide binding – biochemical, fluorescence polarization, dry powder samples, dose response (AID 651798)). Conditions: Keap1 Kelch/FITC-Nrf2 peptide fluorescence polarization.
Sequence of Kelch-like ECH-associated protein 1 (Homo sapiens) (Q14145 whole entry, looked up): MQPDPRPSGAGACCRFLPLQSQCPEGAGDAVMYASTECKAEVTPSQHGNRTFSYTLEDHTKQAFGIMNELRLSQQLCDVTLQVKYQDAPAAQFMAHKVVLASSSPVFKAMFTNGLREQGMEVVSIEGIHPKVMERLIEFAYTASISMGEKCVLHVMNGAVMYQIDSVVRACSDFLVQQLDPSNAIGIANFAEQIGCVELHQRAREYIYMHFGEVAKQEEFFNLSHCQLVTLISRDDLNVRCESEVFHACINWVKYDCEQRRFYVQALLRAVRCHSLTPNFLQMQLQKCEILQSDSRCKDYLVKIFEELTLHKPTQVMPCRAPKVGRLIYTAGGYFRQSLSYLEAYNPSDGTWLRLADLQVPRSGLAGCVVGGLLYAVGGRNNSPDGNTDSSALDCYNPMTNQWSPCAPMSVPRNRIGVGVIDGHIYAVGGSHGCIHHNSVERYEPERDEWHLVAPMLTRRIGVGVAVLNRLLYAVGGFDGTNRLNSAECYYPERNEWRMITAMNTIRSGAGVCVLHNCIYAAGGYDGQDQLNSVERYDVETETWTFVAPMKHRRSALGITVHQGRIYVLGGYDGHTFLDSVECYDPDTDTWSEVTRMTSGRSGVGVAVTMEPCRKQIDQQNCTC

SMILES | AC50
O=C(NCCc1ccccc1)c1ccccc1C(=O)NC[C@@H]1c2ccccc2CCN1C(=O)C1CCCCC1C(=O)O (stereo partly drawn) | > 100 µM (inactive)
O=C(O)[C@H]1CCCC[C@H]1C(=O)N1CCC2=C(CCCC2)C1CN1C(=O)c2ccccc2C1=O (stereo partly drawn) | > 100 µM (inactive)
CC(C)OC(=O)C(C(=O)C(F)(F)F)c1cc(NS(=O)(=O)c2ccccc2)c2ccccc2c1O (stereo not drawn) | 21.8 µM
O=C(O)C1CCCCC1C(=O)N1CCc2ccccc2C1CN1C(=O)Cc2ccccc2C1=O (stereo not drawn) | > 100 µM (inactive)
O=C(O)[C@H]1C2C=CC(C2)[C@H]1C(=O)N1CCc2ccccc2C1CN1C(=O)c2ccccc2C1=O (stereo partly drawn) | > 100 µM (inactive)
O=C(O)C1CCCCC1C(=O)N1CCc2ccccc2C1CN1Cc2ccccc2C1=O (stereo not drawn) | 31.9 µM
Cc1ccc(S(=O)(=O)NC(=O)[C@@H]2c3ccccc3CCN2C(=O)[C@@H]2CCCC[C@@H]2C(=O)O)cc1 | > 100 µM (inactive)
O=C(O)Cc1ccccc1C(=O)N1CCc2ccccc2[C@H]1CN1C(=O)c2ccccc2C1=O | 28.3 µM
O=C(O)C1CCCCC1C(=O)N1CCc2ccccc2C1CN1C(=O)[C@H]2CCCC[C@H]2C1=O (stereo partly drawn) | > 100 µM (inactive)
NC(=O)c1ccccc1C(=O)NC[C@@H]1c2ccccc2CCN1C(=O)[C@@H]1CCCC[C@@H]1C(=O)O | > 100 µM (inactive)

The next lines start with the values.

AC50 | SMILES
7.25 µM | Cc1ccc(S(=O)(=O)Nc2cc(C(C(=O)OC(C)C)C(=O)C(F)(F)F)c(O)c3ccccc23)cc1 (stereo not drawn)
2.26 µM | Cc1ccc(S(=O)(=O)Nc2cc(C(C(=O)OC(C)C)C(=O)C(F)(F)F)c(O)c3ccccc23)c(C)c1 (stereo not drawn)
15.2 µM | CC(=O)Nc1cc(NS(=O)(=O)c2c(C)cc(C)cc2C)c2ccccc2c1O
34.2 µM | COC(=O)C(C(=O)OC)c1cc(NS(=O)(=O)c2c(C)cc(C)cc2C)c2ccccc2c1O
0.673 µM | Cc1cc(C)c(S(=O)(=O)Nc2cc(C(C(=O)OC(C)C)C(=O)C(F)(F)F)c(O)c3ccccc23)c(C)c1 (stereo not drawn)
3.2 µM | Cc1ccccc1S(=O)(=O)Nc1cc(C(C(=O)OC(C)C)C(=O)C(F)(F)F)c(O)c2ccccc12 (stereo not drawn)

Same assay, conditions: Keap1 Kelch/FITC-Nrf2 peptide fluorescence polarization; at 12 µM (top of the series)

activity change, negative = inhibition | SMILES
inactive | O=C1c2ccccc2C(=O)N1CC1c2ccccc2CCN1C(=O)Cc1ccccc1 (stereo not drawn)

Same assay, conditions: Keap1 Kelch/FITC-Nrf2 peptide fluorescence polarization; at 50 µM (top of the series)

SMILES | activity change, negative = inhibition
O=C(Cc1ccccc1)NC[C@@H]1c2ccccc2CCN1C(=O)[C@@H]1CCCC[C@@H]1C(=O)O | inactive
O=C(O)/C=C\C(=O)N1CCc2ccccc2C1CN1C(=O)c2ccccc2C1=O (stereo not drawn) | inactive
O=C(O)[C@H]1CCCC[C@H]1C(=O)NC(CN1C(=O)c2ccccc2C1=O)c1ccccc1 (stereo partly drawn) | inactive
O=C(NC[C@@H]1c2ccccc2CCN1C(=O)[C@@H]1CCCC[C@@H]1C(=O)O)c1ccccc1 | inactive
O=C1c2ccccc2C(=O)N1C[C@@H]1c2ccccc2CCN1C(=O)OCc1ccccc1 | inactive
COC(=O)[C@@H]1CCCC[C@@H]1C(=O)N1CCc2ccccc2[C@H]1CN1C(=O)c2ccccc2C1=O | inactive
O=C(O)[C@H]1CCCC[C@H]1C(=O)N1CCC2=C(CCCC2)C1CN1C(=O)c2ccccc2C1=O (stereo partly drawn) | inactive
O=C(O)[C@H]1CCCC[C@H]1C(=O)N1CCc2ccccc2C1 (racemic) | inactive
O=C1c2ccccc2C(=O)N1CC1=NCCc2ccccc21 | inactive
COC(=O)[C@@H]1CCCC[C@@H]1C(=O)N1CCc2ccccc2[C@@H]1CN1C(=O)c2ccccc2C1=O | inactive
O=C(O)c1ccccc1C(=O)N1CCc2ccccc2C1CN1C(=O)c2ccccc2C1=O (stereo not drawn) | inactive
COc1ccccc1CCNC(=O)[C@@H]1c2ccccc2CCN1C(=O)C1CCCCC1C(=O)O (stereo partly drawn) | inactive
O=C(O)[C@H]1CCCC[C@H]1C(=O)N1CCc2ccccc2C1CCN1C(=O)c2ccccc2C1=O (stereo partly drawn) | inactive
O=C1c2ccccc2C(=O)N1C[C@@H]1c2ccccc2CCN1C(=O)C1CCCCC1 | inactive
O=C(O)C1CCCCC1C(=O)N1CCCCC1CN1C(=O)c2ccccc2C1=O (stereo not drawn) | inactive
COC(=O)[C@H]1CCCC[C@H]1C(=O)N1CCc2ccccc2[C@H]1CN1C(=O)c2ccccc2C1=O | inactive
C[C@H](NC(=O)C1CCCC[C@H]1C(=O)O)c1ccccc1 (mixture of isomers) | inactive
O=C(NC[C@@H]1c2ccccc2CCN1C(=O)[C@@H]1CCCC[C@@H]1C(=O)O)OCC1c2ccccc2-c2ccccc21 | inactive
Cc1ccc(S(=O)(=O)NC(=O)[C@@H]2c3ccccc3CCN2C(=O)[C@@H]2CCCC[C@@H]2C(=O)O)cc1 | inactive
O=C(NC[C@@H]1c2ccccc2CCN1C(=O)[C@@H]1CCCC[C@@H]1C(=O)O)c1ccc(CCl)cc1 | inactive
O=C(O)[C@H]1CCCC[C@H]1C(=O)N1CCc2ccccc2[C@H]1CNc1nc(Cl)nc2ccccc12 | inactive
O=C(NCCCN1CCOCC1)c1ccccc1C(=O)NC[C@@H]1c2ccccc2CCN1C(=O)C1CCCCC1C(=O)O (stereo partly drawn) | inactive

SMILES | activity change, negative = inhibition
C=CC(=O)NC[C@@H]1c2ccccc2CCN1C(=O)[C@@H]1CCCC[C@@H]1C(=O)O | inactive
O=C(NCCO)c1ccccc1C(=O)NC[C@@H]1c2ccccc2CCN1C(=O)C1CCCCC1C(=O)O (stereo partly drawn) | inactive
O=C(O)C1CCCCC1C(=O)N1CCc2ccccc2[C@H]1C(=O)NCCc1ccccc1 (stereo partly drawn) | inactive
O=C(NC[C@@H]1c2ccccc2CCN1C(=O)[C@@H]1CCCC[C@@H]1C(=O)O)c1ccc(CN2CCOCC2)cc1 | inactive
O=C(O)[C@H]1CCCC[C@H]1C(=O)N1CCc2ccccc2[C@H]1CNS(=O)(=O)c1ccccc1 | inactive
NC(=O)[C@H]1CCCC[C@H]1C(=O)N1CCc2ccccc2[C@H]1CN1C(=O)c2ccccc2C1=O | inactive
O=C(O)C1CCCCC1C(=O)NCC1c2ccccc2CCN1C(=O)Cc1ccccc1 (stereo not drawn) | inactive
O=C(O)CCC(=O)N1CCc2ccccc2C1CN1C(=O)c2ccccc2C1=O (stereo not drawn) | inactive
O=C(O)c1ccccc1C(=O)NC[C@@H]1c2ccccc2CCN1C(=O)[C@@H]1CCCC[C@@H]1C(=O)O | inactive
O=C(O)CCCC(=O)N1CCc2ccccc2C1CN1C(=O)c2ccccc2C1=O (stereo not drawn) | inactive
COC(=O)C1CCCCC1C(=O)N1CCc2ccccc2C1CN1C(=O)c2ccccc2C1=O (stereo not drawn) | inactive
O=C(O)C1CCCCC1C(=O)Nc1ccccc1CN1C(=O)c2ccccc2C1=O (stereo not drawn) | inactive
O=C(O)CC(=O)N1CCc2ccccc2C1CN1C(=O)c2ccccc2C1=O (stereo not drawn) | inactive
O=C1c2ccccc2C(=O)N1C[C@H]1NCCc2ccccc21 | inactive
O=C(Oc1cc(CN2C(=O)c3ccccc3C2=O)c2ccccc2[n+]1[O-])c1cccc(Cl)c1 | inactive
O=C(NC[C@@H]1c2ccccc2CCN1C(=O)[C@@H]1CCCC[C@@H]1C(=O)O)c1ccccc1CO | inactive
O=C(O)C1CCCCC1C(=O)N1CCc2ccccc2C1c1ccccc1 (stereo not drawn) | inactive
Cc1ccc(S(=O)(=O)NC[C@@H]2c3ccccc3CCN2C(=O)[C@@H]2CCCC[C@@H]2C(=O)O)c(C)c1 | inactive
C[C@@H](NC(=O)C1CCCC[C@H]1C(=O)O)c1ccccc1 (mixture of isomers) | inactive
O=C(O)[C@H]1CCCC[C@H]1C(=O)N1CCc2ccccc2[C@H]1CNS(=O)(=O)c1ccc([N+](=O)[O-])cc1 | inactive
O=C(O)C1CCCCC1C(=O)N1CCc2ccccc2[C@H]1C(=O)NC12CC3CC(CC(C3)C1)C2 (stereo partly drawn) | inactive
O=C(O)[C@@H]1CCCN1C(=O)N1CCc2ccccc2[C@H]1CN1C(=O)c2ccccc2C1=O | inactive

Now from value to molecule:

activity change, negative = inhibition | SMILES
inactive | CCOC(=O)C(C(=O)OCC)c1cc(CNS(=O)(=O)c2ccc(C)cc2C)c2ccccc2n1
inactive | Cc1cc(C)c(S(=O)(=O)Nc2nc(N(C)C)nc3ccccc23)c(C)c1
inactive | Cc1cc(C)c(S(=O)(=O)Nc2cc(C(C(=O)OCc3ccccc3)C(=O)OCc3ccccc3)c(O)c3ccccc23)c(C)c1
inactive | CC(C)CNc1nc(NS(=O)(=O)c2ccccc2)c2ccccc2n1
inactive | Cc1cc(C)c(S(=O)(=O)Nc2nc(C(C(=O)OC(C)C)C(=O)C(F)(F)F)nc3ccccc23)c(C)c1 (stereo not drawn)
inactive | Cc1ccc(S(=O)(=O)NNc2nc(N3CC(O)CC3C(=O)O)nc3ccccc23)cc1 (stereo not drawn)
inactive | Cc1ccc(S(=O)(=O)NNc2nc(C(C(=O)OC(C)C)C(=O)C(F)(F)F)nc3ccccc23)cc1 (stereo not drawn)
inactive | CCOC(=O)C(C(=O)OCC)c1nc(NS(=O)(=O)c2c(C)cc(C)cc2C)c2ccccc2n1
inactive | Cc1ccc(S(=O)(=O)NC2=CC(=N[C@@H](C)C(=O)OC(C)(C)C)C(=O)c3ccccc32)c(C)c1
inactive | Cc1cc(C)c(S(=O)(=O)Nc2nc(NCCO)nc3ccccc23)c(C)c1
inactive | CCOC(=O)C(C(=O)OCC)c1cc(CN2C(=O)c3ccccc3C2=O)c2ccccc2n1
inactive | COC(=O)CNc1nc(NS(=O)(=O)c2c(C)cc(C)cc2C)c2ccccc2n1
inactive | O=S(=O)(Nc1nc(NCC2CCCCC2)nc2ccccc12)c1ccccc1
inactive | Cc1ccc(S(=O)(=O)NNc2nc(NCC(N)=O)nc3ccccc23)cc1
inactive | Cc1cc(C)c(S(=O)(=O)Nc2ncnc3ccccc23)c(C)c1
inactive | COc1ccc(CCN=C2C=C(NS(=O)(=O)c3c(C)cc(C)cc3C)c3ccccc3C2=O)cc1
inactive | CCOC(=O)Cc1nc(NS(=O)(=O)c2c(C)cc(C)cc2C)c2ccccc2n1
